The source of these data is PMC5286520 (Scientific Reports, 2017).

Where two headings read alike, the source gives them in different places. Bridge positions count the residues as written; N and C are the ends. Square brackets hold non-standard residues; d marks the D form. Peptide text beside a SMILES is read from it.

Series [1] concerns the target T1, human V2R (Homo sapiens, UniProt P30518).
T1 construct: expressed in transfected cells; host or cells: HEK293 cells, transient (jetPRIME); for the reporter assay co-transfected with pGL4.29 [luc2P/CRE/Hygro]
The series can be described thus: cell-based. As to conditions: luciferase reporter, CRE response element; mean ± SEM; read-out: Potency (EC50). The procedure: (§1) Chinese Hamster Ovary cells (CHO) were cultured in Ham’s F12 media supplemented with 10% fetal bovine serum (FBS), 1% PenStrep (all from Sigma-Aldrich, Munich, Germany) and grown in a humidified atmosphere of 37 °C, 5% CO2 and passaged on average twice per week. CHO cells were used for expression of inotocin receptor (L. niger, T. castaneum). Cell transfections were carried out with 10 μg of plasmid using Lipofectamine LTX (Life Technologies, Invitrogen, Carlsbad, USA) for invertebrate receptors. For the expression of human OTR, V1aR, V1bR and V2R, HEK293 cells were transfected using jetPRIME (Polyplus Transfections, Illkirch-Graffenstaden, France)[35]. Cells were maintained in DMEM (GE Healthcare Hy Clone™, Logan, USA) supplemented with 10% FBS and 1% PenStrep.
(§2) Activation of Gq-signalling via the human V1aR, V1bR and OTR, as well as the insect INTR was measured by inositol-1-phosphate (IP1) quantification using an IP1 Tb kit (Cisbio, Codolet, France). Transfected cells were seeded in 96 well-plates, with a cell density of 10^4 cells per well. Cell culture media was removed from the wells after 6 h and 70 μL of peptide of interest, prepared in IP1 1X Stimulation Buffer at the desired concentrations, was added. Samples were measured in technical triplicates. After 1 h incubation at 37 °C, 15 μL of IP1-d2 was added, following the same volume of Ab-cryptate. […] Activation of Gs-signalling via the human V2R was measured using a luciferase reporter assay. HEK293 transiently expressing V2R were co-transfected with the pGL4.29 [luc2P/CRE/Hygro] (Promega, Mannheim, Germany) plasmid. […] For cell-based functional assays (luciferase and IP1), subtraction of the negative control (stimulation buffer) was applied to all data set. The normalization was performed to the highest value of the positive control from at least 4 independent experiments. Data were fitted using GraphPad Prism 5.0 with an equation for non-linear regression (sigmoidal, slope fit of 1). Values are reported as mean ± SEM. For Schild regression analysis, each concentration-ratio (r) was calculated as the agonist EC50 in the presence of a respective concentration of [D-Arg8]-inotocin by the EC50 of the agonist alone.

Series [2] concerns the target T2, human V1bR (Homo sapiens, UniProt P47901).
T2 construct: expressed in transfected cells; host or cells: HEK293 cells, transient (jetPRIME)
T2 sequence (P47901 1-424): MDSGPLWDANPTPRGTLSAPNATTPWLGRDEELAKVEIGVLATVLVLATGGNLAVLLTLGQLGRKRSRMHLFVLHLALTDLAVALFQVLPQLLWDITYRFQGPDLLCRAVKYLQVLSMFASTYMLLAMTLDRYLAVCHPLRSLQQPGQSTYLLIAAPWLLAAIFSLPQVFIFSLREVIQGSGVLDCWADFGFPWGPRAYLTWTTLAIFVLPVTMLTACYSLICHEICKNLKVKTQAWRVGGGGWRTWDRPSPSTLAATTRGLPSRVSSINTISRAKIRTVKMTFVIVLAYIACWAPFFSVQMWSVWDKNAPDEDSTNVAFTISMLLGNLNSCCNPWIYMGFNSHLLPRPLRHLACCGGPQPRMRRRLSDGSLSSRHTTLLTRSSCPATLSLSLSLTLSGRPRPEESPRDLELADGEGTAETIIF
Kind of series: cell-based. The procedure: as §1, §2

For series [3], the target named is T2, human V1bR. The series can be described thus: Radioligand displacement of [3H] vasopressin, human V1bR membranes. The class given is binding.
Excerpt: Unbound ligands were washed off (Skatron Cell Harvester). […] For the displacement at the human OTR, V1aR, V1bR and V2R the normalization to 100% refers on average to 0.49, 1.4, 0.36, 1.1 pmoles of ligand bound per milligram of membrane for human OTR, V1aR, V1bR and V2R, respectively. […] For the displacement at the insect receptors the normalization to 100% refers on average to 0.65 and 0.69 pmoles of ligand bound per milligram of membrane for inotocin receptor from L. niger and T. castaneum, respectively. Bindings of [^3H] inotocin to membranes (10 μg) expressing INTR from L. niger, or [^3H] inotocin to membranes (10 μg) expressing INTR from T. castaneum, respectively, were assayed for displacement with an excess of inotocin (10^−11 to 10^−5 M) (n ≥ 3, except where otherwise stated). […] Specific binding was calculated by subtracting the non-specific binding from the total binding. IC50 values were obtained by fitting the data to a three-parameter logistic Hill equation. Inhibition constants (Ki) were calculated from IC50 using the method by Cheng and Prusoff[65].
The target in series [4] is T1, human V2R. The series can be described thus: Radioligand displacement of [3H] vasopressin, human V2R membranes. The format is binding. The procedure: as §1
Unbound ligands were washed off (Skatron Cell Harvester). […] Bindings of [^3H] AVP and [^3H] […] Bindings of [^3H] inotocin to membranes (10 μg) expressing INTR from L. niger, or [^3H] inotocin to membranes (10 μg) expressing INTR from T. castaneum, respectively, were assayed for displacement with an excess of inotocin (10^−11 to 10^−5 M) (n ≥ 3, except where otherwise stated). […] Specific binding was calculated by subtracting the non-specific binding from the total binding. IC50 values were obtained by fitting the data to a three-parameter logistic Hill equation. Inhibition constants (Ki) were calculated from IC50 using the method by Cheng and Prusoff[65].

The target in series [5] is T3, human OTR (Homo sapiens, UniProt P30559).
T3 construct: expressed in transfected cells; host or cells: HEK293 cells, transient (jetPRIME)
T3 sequence (P30559 1-389): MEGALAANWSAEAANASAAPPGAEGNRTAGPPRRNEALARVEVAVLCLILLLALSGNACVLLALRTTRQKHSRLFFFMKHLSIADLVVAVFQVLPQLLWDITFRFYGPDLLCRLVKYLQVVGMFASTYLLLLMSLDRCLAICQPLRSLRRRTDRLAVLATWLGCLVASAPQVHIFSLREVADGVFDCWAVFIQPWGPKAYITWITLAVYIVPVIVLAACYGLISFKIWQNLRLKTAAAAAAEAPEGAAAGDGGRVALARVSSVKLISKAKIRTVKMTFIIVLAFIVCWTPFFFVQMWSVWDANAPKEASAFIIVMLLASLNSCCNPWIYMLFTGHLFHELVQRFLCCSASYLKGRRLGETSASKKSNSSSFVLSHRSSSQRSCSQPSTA
Kind of series: IP1 accumulation, HEK293 cells expressing human OTR. The class given is cell-based. The procedure:
as §1, §2

Series [6] concerns the target T3, human OTR. The series can be described thus: Radioligand displacement of [3H] oxytocin, human OTR membranes. The class given is binding. As to conditions: read-out: Affinity (Ki). The procedure: as §1
(§3) Unbound ligands were washed off (Skatron Cell Harvester). […] Bindings of [^3H] AVP and [^3H] […] Bindings of [^3H] inotocin to membranes (10 μg) expressing INTR from L. niger, or [^3H] inotocin to membranes (10 μg) expressing INTR from T. castaneum, respectively, were assayed for displacement with an excess of inotocin (10^−11 to 10^−5 M) (n ≥ 3, except where otherwise stated). […] Specific binding was calculated by subtracting the non-specific binding from the total binding. […] Inhibition constants (Ki) were calculated from IC50 using the method by Cheng and Prusoff[65].

Series [7] concerns the target T4, human V1aR (Homo sapiens, UniProt P37288). Kind of series: IP1 accumulation, HEK293 cells expressing human V1aR. The class given is cell-based. On the set-up: expressed in transfected cells; host or cells: HEK293 cells, transient (jetPRIME). The procedure:
as §1, §2

The format of series [8] is in vitro ADME, human. The procedure:
Serum stability was tested as described previously. Briefly, serum was obtained prepared from human blood (self-donor), allowed to coagulate for 2 h at 23 °C and centrifuged at 12,000 × g for 10 min. Peptides (100 μM) were incubated in serum for 2, 4, 6, 8, 10 and 24 h at 37 °C. To evaluate peptide stability, aliquots ([…]) were analysed via RP-HPLC (UltiMate 3000, Thermo Scientific Dionex, Vienna, Austria) on a C18 column (Phenomenex Kinetex, Aschaffenburg, Germany) with a 3% gradient using 0.1% (v/v) TFA and 90/10/0.1% (v/v/v) acetonitrile/H2O/TFA as eluents. Half-life (t1/2) of peptides was calculated using non-linear regression analysis using Graph Pad Prism.
Supplementary Fig. 5. Human serum stability of the inotocin D-analogue. [D-Arg 8 ]-inotocin […]
serum and their stability monitored via HPLC over a time course of 2, 4, 6, 8, 10 and 24 h. Melittin, a haemolytic peptide from the bee venom was used as a positive control f or peptide degradation.
Area under the curves of samples was determined and correlated to the negative control analyte, which was dissolved in 0.1% TFA; thus they were not subject to degradation and were assumed therefore as 100%. Peptide stability was expressed in percentage of peptide remaining.
(1 picture or pasted object on this page, not shown here)

Series [9] deals with T4, human V1aR. Kind of series: Radioligand displacement of [3H] vasopressin, human V1aR membranes. The class given is binding. More on the design: expressed in transfected cells; host or cells: HEK293 cells, transient (jetPRIME). The settings on record: human V1aR over OTR, V1bR and V2R. The procedure: as §1, §3
Series [10] deals with T4, human V1aR. The series can be described thus: cell-based.
Another series concerns the target V1aR. More on the design: method as in earlier work. As to conditions: previous studies, ref [32][43], cited from earlier work.
The next series relates to human myometrium. The series can be described thus: Ex vivo human myometrial contractility, vasopressin-augmented (0.5 nM). As to conditions: vasopressin 0.5 nM.
[11] abbreviates: IP1 accumulation, mean ± SEM, read-out: Potency (EC50).
Where [12] appears, read: Affinity (Ki), displacement of [3H] vasopressin, mean ± SEM.
Where [13] appears, read: 100 nM, relative to control activity.

T1 sequence (P30518 whole entry): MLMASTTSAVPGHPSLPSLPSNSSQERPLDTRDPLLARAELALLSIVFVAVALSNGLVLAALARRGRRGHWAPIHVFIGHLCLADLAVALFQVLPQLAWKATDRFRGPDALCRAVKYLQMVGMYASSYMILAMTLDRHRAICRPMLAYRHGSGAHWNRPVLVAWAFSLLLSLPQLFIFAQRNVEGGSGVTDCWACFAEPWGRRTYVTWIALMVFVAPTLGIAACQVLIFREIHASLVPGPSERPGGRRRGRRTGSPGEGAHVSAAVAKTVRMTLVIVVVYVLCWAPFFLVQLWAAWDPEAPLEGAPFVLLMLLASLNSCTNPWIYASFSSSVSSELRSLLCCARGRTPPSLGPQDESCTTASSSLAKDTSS
T4 sequence (P37288 whole entry): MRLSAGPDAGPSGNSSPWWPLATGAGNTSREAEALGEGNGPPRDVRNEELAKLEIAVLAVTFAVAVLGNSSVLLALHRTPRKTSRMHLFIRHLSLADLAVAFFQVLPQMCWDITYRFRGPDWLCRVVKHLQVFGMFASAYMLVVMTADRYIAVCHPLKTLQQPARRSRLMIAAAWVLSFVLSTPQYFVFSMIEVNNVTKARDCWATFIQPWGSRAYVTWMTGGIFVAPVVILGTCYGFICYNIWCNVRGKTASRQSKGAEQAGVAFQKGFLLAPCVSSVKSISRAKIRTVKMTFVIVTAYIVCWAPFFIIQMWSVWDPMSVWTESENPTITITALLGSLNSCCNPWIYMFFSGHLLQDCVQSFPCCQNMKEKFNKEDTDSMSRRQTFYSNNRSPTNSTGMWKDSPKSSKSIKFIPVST

`CC[C@H](C)[C@@H]1NC(=O)[C@H](CC(C)C)NC(=O)[C@@H](N)CSSC[C@@H](C(=O)N2CCC[C@H]2C(=O)N[C@H](CCCNC(=N)N)C(=O)NCC(N)=O)NC(=O)[C@H](CC(N)=O)NC(=O)[C@H]([C@@H](C)O)NC1=O` [[D-Arg8]-inotocin] (H-CLITNCP[dR]G-NH2; disulfide 1-6): the EC50 on human V2R [1] was 0.164 ± 0.026 µM; on human V1bR [2] (setting [11]), greater than 100 µM; at human V1bR [2] (IP1 response, human V1bR, read-out: EC50) it was greater than 10 µM; on human OTR [5] (setting [11]), greater than 100 µM; on human OTR [5] (IP1 response, human OTR, read-out: EC50) it was greater than 10 µM; on human V1aR [7] (setting [11]), greater than 100 µM. The EC50 at human V1aR [7] (IP1 response, human V1aR, read-out: EC50) was greater than 10 µM. The Ki on human V1bR [3] (setting [12]) was greater than 100 µM; on human V1bR [3] (Ki, no significant displacement, human V1b receptor), greater than 4 µM; on human V2R [4] (setting [12]), greater than 100 µM; at human V2R [4] (Ki, no significant displacement, human V2 receptor), greater than 4 µM; at human OTR [6], greater than 4 µM. Moreover, in [8] (human serum, 37 °C, 24 h, read-out: peptide still present after 24 h), the remaining at 24 h was greater than 70%. Also, the binding selectivity on human V1aR [9] is listed as 3,000 fold. The compound also showed a Kb on human V1aR [10] of 0.0158 µM.
On to `CC[C@H](C)[C@H](NC(=O)CN)C(=O)NCC(=O)N[C@@H](C)C(=O)N[C@H](C(=O)N[C@@H](CC(C)C)C(=O)N[C@@H](CCCCN)C(=O)N[C@H](C(=O)N[C@@H](CC(C)C)C(=O)N[C@H](C(=O)N[C@H](C(=O)NCC(=O)N[C@@H](CC(C)C)C(=O)N1CCC[C@H]1C(=O)N[C@@H](C)C(=O)N[C@@H](CC(C)C)C(=O)N[C@H](C(=O)N[C@@H](CO)C(=O)N[C@@H](Cc1c[nH]c2ccccc12)C(=O)N[C@H](C(=O)N[C@@H](CCCCN)C(=O)N[C@@H](CCCNC(=N)N)C(=O)N[C@@H](CCCCN)C(=O)N[C@@H](CCCNC(=N)N)C(=O)N[C@@H](CCC(N)=O)C(=O)N[C@@H](CCC(N)=O)C(N)=O)[C@@H](C)CC)[C@@H](C)CC)[C@@H](C)O)[C@@H](C)O)C(C)C)C(C)C` [melittin], for which, in [8] (human serum, 37 °C, 100 μM peptide, read-out: half-life t½ (converted)), the half-life is 42 min. The “degradation in human serum” value in [8] (within 24 h) is “fully degraded”.
For [D-Arg8]-vasopressin, the Ki on V1aR (read-out: binding affinity) was 0.781 µM. The “difference in affinity of peptide pair vasopressin/[D-Arg8]-vasopressin” value with V1aR was ~ 200 fold.
As to `COc1ccc(S(=O)(=O)N2c3ccc(Cl)cc3[C@](O)(c3ccccc3Cl)[C@@H]2C(=O)N2CCC[C@H]2C(N)=O)cc1OC` [SR49059, relcovaptan], in the series with human myometrium (setting [13]), the “reduction of area-under-the-curve (AUC)” value is listed as 72.1% and the “reduction of contraction amplitude” value was 54.8%. Besides, in the series on human myometrium (tested 1-100 nM), the “concentration at which decrease in area-under-the-curve became significant” value is 30 nM and the “concentration at which decrease in contraction amplitude became significant” value was determined as 30 nM.
